Experimental data as given in patent US20220105157A1, “Compositions and Methods for Promoting Angiogenesis in the Eye” (The Regents of the University of California, priority 2019, published 2022).

Experiments:
[1] = test system: bovine choroidal endothelial (BCE) cells; experiment: BCE endothelial cell proliferation assay (alamar blue); type: cell-based
Experimental: The bovine endothelial proliferation assays were performed essentially as previously described (63, 64). BCE (1×10^3 cells/well) or BRE (5×10^2 cells/well) cells were seeded in 96-well plates in the culture medium (DMEM-low glucose supplemented with 10% BCS, 2 mM glutamine and antibiotics) plus testing materials with a total volume of 200 μl per well. BAE cells were plated in 96-well plates at a density of 2×10^3 cells in the culture medium (DMEM-low glucose supplemented with 1% BCS and antibiotics) plus testing material with a total volume of 200 μl per well. HRME cells were seeded at a density of 1×10^3 cells/well in gelatin-coated 96-well plates in assay medium (DMEM-low glucose supplemented with 20% FBS and antibiotics) plus testing materials to make a total volume 200 μl per well. For assays involving antibodies or small-molecule inhibitors, inhibitors or vehicle controls were first added and then test materials were added one hour later. After 6 days (unless otherwise specified), cells were incubated with alamar blue for 4 h. Fluorescence was measured at 530 nm excitation wavelength and 590 nm emission wavelength. Each experiment was carried out in duplicate/triplicate and repeated at least three times.

[2] = test system: retinal vasculature of mouse eyes; experiment: Intravitreal injection of recombinant proteins in mouse eyes, retinal vessel density; type: in vivo; details: for retinal microvessel density (CD31): 6-8 week old mice, intravitreal
Experimental: Male C57BL/6J mice (6-8 week and P5) were anesthetized with ketamine/Xylazine cocktail. The indicated amounts of recombinant LIF (Sigma, CAT #SRP9001) in 1 μl of PBS and PBS vehicle control were injected intravitreally with a 33-gauge Hamilton syringe. Seven (for adult mice) or 3 (for neonatal mice) days after injection, animals were euthanized, eyes were then enucleated and fixed in 4% paraformaldehyde (PFA) for 15 min. Choroid-sclera complexes and retinas were separated and anti-CD31 immunofluorescence (IF) or lectin labeling was performed to evidence the vasculature by whole mount staining of both retina and choroidal tissues or flat-mounts of retina. For CD31 IF, rat anti-mouse antibody (BD Biosciences, CAT #550274) was diluted 1:100 and incubated overnight at 4° C. After 4-hour incubation with the Alexa Fluor-488-conjugated anti-rat antibody (Life Technologies, CAT #A11006), whole mounts were imaged via the 488 nm channel using Keyence Microscope BZ-X710 (Keyence Corporation, Osaka, Japan) or A1R Confocal STORM super-resolution system (Nikon). For lectin staining, Dylight-488-labeled lectin (Vector Laboratories, CAT #DL-1174) was diluted at 1:200 and images were obtained using A1R Confocal STORM super-resolution system (Nikon). For Quantification of vascular density in choroids and retina was carried out by Image J. Student's t test was used for statistical analysis. Each experiment was repeated three times with similar results each time, and each treatment group consists of 4 or 5 individual samples in every experiment. All animal experimental procedures were approved by the Institutional Animal Care and Use Committee (IACUC) of the University of California San Diego and conducted in accordance with the guidelines of the Animal Care Program (ACP).
Optical coherence tomography angiography (OCTA) imaging of the retina of adult mice was performed 7 days after LIF injection, using a 1300 nm optical coherence tomography (OCT) system developed by Dr. R. K. Wang's group at University of Washington Seattle, in agreement with previously described methodology (66). Briefly, the swept laser operated in single longitude mode with a 90 nm bandwidth centered at 1300 nm and 200 kHz A-line rate was used to scan mouse retina and to generate images of vasculature in a field of view of 1.5×1.5 mm^2. 2500 B-frames were captured at 500 cross-sections with five repeated B-frames at each cross-section. To quantify the retinal vascular density, retinal and choroidal layers in 3D structure OCT scans were separated by the hyper-reflecting retinal pigment epithelium (RPE). Then the en face maximum intensity projection was generated. The vessel density was then determined by calculating the percentages of vessel-covered area in total area of view using the ImageJ software.

mouse choroidal explants = experiment: Mouse choroidal explant assay (ex vivo sprouting); type: cell-based; details: LIF 10 ng/ml, compared with control
Experimental: In a 48-well plate, 60 μL of growth factor-reduced basement membrane extract (GFR-BME) (Corning, CAT #354230) was added to each well and allowed to solidify at 37° C. for 20 minutes. A dice of the peripheral choroid-scleral complex (approximately 1 mm×1 mm), dissected from male C57BL/6J mice (age P20), was added to the center of each well as previously described (23). A top layer of 60 μL GFR-BME was added to each well, followed by incubation at 37° C. for 30 minutes. Upon adding 500 μL of endothelial cell growth basal medium EBM-2 (Lonza, CAT #CC3156) supplemented with 2% FBS and antibiotics, endogenous VEGF activity of choroid explants was blunted by 5 μg/ml of anti-VEGF Mab B20-4.1.1. After 90 minutes of incubation with the antibody, 10 ng/ml of LIF or PBS control was added in the test wells. Tissues were incubated in standard cell culture conditions with 5% CO2 and fresh media were changed every 48 hours. Phase contrast Z-stack images of each explants were taken on day 5 using a Keyence microscope. Vessel sprouting areas were quantified using ImageJ software. The experiment was repeated three times and data were obtained by analyzing 5 replicates per each condition each time.

LIF: recombinant human leukemia inhibitory factor, a member of the IL-6 family of cytokines
stimulation of BCE cell growth (mitogenic activity) [1]: stimulated growth of BCE cells
retinal vascular density in neonatal mice (lectin) ([2]; 5-day postnatal (P5) mice, intravitreal LIF 50 ng, three days after the injection): significant increase in vascular density
retinal microvessel density (CD31) ([2]; 10 ng per eye, 7 days): significantly increased
retinal microvessel density (CD31) ([2]; 100 ng, 7 days): less effective
vessel density in retina, CD31 immunofluorescence in cross sections of mouse eyes ([2]; adult mice, intravitreal LIF 10 ng, 7 days): increased vessel density
retinal vessel density by OCTA ([2]; adult mice, intravitreal LIF 50 ng, 7 days): significant increases
microvascular outgrowth from the choroidal explant into the matrigel (mouse choroidal explants): significantly enhanced
